Experiment [1] deals with human lung cancer strain NCI-H441. Format: cell-based. A digest of the protocol: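 Step one: dispense the test compound in serial DMSO dilutions. Step three: add the reagent and measure […].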
Experiment [2] concerns the target GDP-bound NRAS wild-type protein (Homo sapiens, UniProt P01111). As to the kind of experiment: Binding to NRAS by surface plasmon resonance (SPR), KD and KD ratio to KRAS. The conditions noted are these: ratio of KD for GDP-bound NRAS wild-type protein to KD for KRAS. A digest of the protocol:
(§1)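 Running buffer contained 10 µM GDP and 10 mM MgCl2 to keep RAS in the GDP state, with 4% DMSO at pH 7.4. Compounds were flowed at 100 µL/min in 75 s steps of rising concentration over captured biotin-Avi RAS at 30°C. Sensorgrams were fitted 1:1 for KD.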
A general note: SPR reads the build-up and loss of mass on a sensor chip optically.

A further experiment has as its target HRAS wild-type protein (Homo sapiens, UniProt P01112). The experiment is described as follows: Binding to HRAS by surface plasmon resonance (SPR), KD and KD ratio to KRAS. To be noted: ratio of KD for HRAS wild-type protein to KD for KRAS. A digest of the protocol:
as §1

We go through 15 compounds from patent EP4603105A1, “PHARMACEUTICAL COMPOSITION CONTAINING CYCLIC COMPOUND HAVING SELECTIVE KRAS INHIBITORY EFFECT AGAINST HRAS AND NRAS” (CHUGAI SEIYAKU KABUSHIKI KAISHA, priority 2022, dated 2024).

SMILES strings stand for the structures. pIC50: −log10 of the molar value.

Sequence of HRAS wild-type protein (P01112 whole entry): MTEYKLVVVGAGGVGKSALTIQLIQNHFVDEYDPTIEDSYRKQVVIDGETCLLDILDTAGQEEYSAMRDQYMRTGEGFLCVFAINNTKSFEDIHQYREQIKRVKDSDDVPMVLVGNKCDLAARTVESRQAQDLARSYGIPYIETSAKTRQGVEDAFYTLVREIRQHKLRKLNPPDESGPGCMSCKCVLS
Sequence of GDP-bound NRAS wild-type protein (P01111 whole entry): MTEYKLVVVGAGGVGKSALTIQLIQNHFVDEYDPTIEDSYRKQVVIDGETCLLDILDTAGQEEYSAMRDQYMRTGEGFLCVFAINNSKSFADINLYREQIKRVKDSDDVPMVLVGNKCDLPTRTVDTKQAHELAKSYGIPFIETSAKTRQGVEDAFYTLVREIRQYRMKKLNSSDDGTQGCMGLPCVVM

`CCC(CC)[C@H]1C(=O)N(C)[C@H](C(=O)N(C)C)CC(=O)N(C)[C@@H](COC)C(=O)N[C@@H]([C@@H](C)CC)C(=O)N(C)CC(=O)N(C)[C@H]2C/C=C\CCN(C2=O)[C@@H](Cc2ccc(C(F)(F)F)cc2)C(=O)N(C)CC(=O)N[C@@H](CCc2ccc(C(F)(F)F)c(Cl)c2)C(=O)N2CC3(CC3)C[C@H]2C(=O)NC2(CC(C)(C)C2)C(=O)N1C` [PP2965] gave a negative logarithm of the IC50 (pIC50) in experiment [1] of 7.57. Further, in experiment [2], the “NRAS /KRAS” value is “AA (a compound having 20 or more is denoted as AA)”. Also, the “HRAS /KRAS” value at HRAS wild-type protein is “A (a compound having 10 or more and less than 20 is denoted as A)”.

For the compound `CCC[C@H]1C(=O)N[C@@H]([C@@H](C)CC)C(=O)N(C)CC(=O)N(C)[C@H]2C/C=C\CCN(C2=O)[C@@H](Cc2ccc(C(F)(F)F)cc2)C(=O)N(C)CC(=O)N[C@@H](CCc2ccc(C(F)(F)F)c(OC)c2)C(=O)N2CCCCC[C@H]2C(=O)NC2(CC(C)(C)C2)C(=O)N(C)[C@@H](C(CC)CC)C(=O)N(C)[C@H](C(=O)N(C)C)CC(=O)N1C` [PP2968], in experiment [1], the pIC50 is 7.53. Moreover, the “NRAS /KRAS” value in experiment [2] is reported as “AA (a compound having 20 or more is denoted as AA)”. Besides, the “HRAS /KRAS” value on HRAS wild-type protein was “A (a compound having 10 or more and less than 20 is denoted as A)”.

`CCC[C@H]1C(=O)N[C@@H]([C@@H](C)CC)C(=O)N(C)CC(=O)N(C)[C@H]2C/C=C\CCN(C2=O)[C@@H](Cc2ccc(C(F)(F)F)cc2)C(=O)N(C)CC(=O)N[C@@H](CCc2ccc(C(F)(F)F)c(Cl)c2)C(=O)N2C[C@H](OCC)C[C@H]2C(=O)NC2(CC(C)(C)C2)C(=O)N(C)[C@@H](CC(C)(C)C)C(=O)N(C)[C@H](C(=O)N(C)C)CC(=O)N1C` [PP2969] had a pIC50 in experiment [1] of 8.57. Besides, the “NRAS /KRAS” value in experiment [2] is recorded as “AA (a compound having 20 or more is denoted as AA)”. Further, the “HRAS /KRAS” value at HRAS wild-type protein is “A (a compound having 10 or more and less than 20 is denoted as A)”.

In experiment [1], `CCC[C@H]1C(=O)N[C@@H](C2CCCC2)C(=O)N(C)CC(=O)N(C)[C@H]2C/C=C\CCN(C2=O)[C@@H](Cc2ccc(C(F)(F)F)cc2)C(=O)N(C)CC(=O)N[C@@H](CCc2ccc(C(F)(F)F)c(Cl)c2)C(=O)N2C[C@H](OCC)C[C@H]2C(=O)NC2(CC(C)(C)C2)C(=O)N(C)[C@@H](CC(C)(C)C)C(=O)N(C)[C@H](C(=O)N(C)C)CC(=O)N1C` [PP2971] showed a pIC50 of 8.29. Moreover, the “NRAS /KRAS” value in experiment [2] was “A (a compound having 10 or more and less than 20 is denoted as A)”. Moreover, at HRAS wild-type protein, the “HRAS /KRAS” value is “A (a compound having 10 or more and less than 20 is denoted as A)”.

The compound `CCC(CC)[C@H]1C(=O)N(C)[C@H](C(=O)N(C)C)CC(=O)N(C)[C@@H](COC)C(=O)N[C@@H]([C@@H](C)CC)C(=O)N(C)CC(=O)N(C)[C@H]2C/C=C\CCN(C2=O)[C@@H](Cc2ccc(C(F)(F)F)cc2)C(=O)N(C)CC(=O)N[C@@H](CCc2ccc(Cl)c(Cl)c2)C(=O)N2CCCCC[C@H]2C(=O)NC2(CC(C)(C)C2)C(=O)N1C` [PP2972] gave a pIC50 in experiment [1] of 7.09. The “NRAS /KRAS” value in experiment [2] is given as “AA (a compound having 20 or more is denoted as AA)”. Also, at HRAS wild-type protein, the “HRAS /KRAS” value was “A (a compound having 10 or more and less than 20 is denoted as A)”.

In turn, `CCC[C@H]1C(=O)N[C@@H]([C@@H](C)CC)C(=O)N(C)CC(=O)N(C)[C@H]2C/C=C\CCN(C2=O)[C@@H](Cc2ccc(C(F)(F)F)cc2)C(=O)N(C)CC(=O)N[C@@H](CCc2ccc(C(F)(F)F)c(Cl)c2)C(=O)N2C[C@H](OCC)C[C@H]2C(=O)NC2(CC(C)(C)C2)C(=O)N(C)[C@@H]([C@@H](C)CC)C(=O)N(C)[C@H](C(=O)N(C)C)CC(=O)N1C` [PP2973] gave a negative logarithm of the IC50 (pIC50) in experiment [1] of 8.10. For the same compound, the “NRAS /KRAS” value in experiment [2] is “A (a compound having 10 or more and less than 20 is denoted as A)”. At HRAS wild-type protein, the “HRAS /KRAS” value is “A (a compound having 10 or more and less than 20 is denoted as A)”.

In experiment [1], `CCC[C@H]1C(=O)N[C@@H]([C@@H](C)CC)C(=O)N(C)CC(=O)N(C)[C@H]2C/C=C\CCN(C2=O)[C@@H](Cc2ccc(C(F)(F)F)cc2)C(=O)N(C)CC(=O)N[C@@H](CCc2ccc(C(F)(F)F)c(Cl)c2)C(=O)N2C[C@H](OCC)C[C@H]2C(=O)NC2(CC(C)(C)C2)C(=O)N(C)[C@@H](CC(F)(F)F)C(=O)N(C)[C@H](C(=O)N(C)C)CC(=O)N1C` [PP2975] showed a pIC50 of 7.78. Besides, in experiment [2], the “NRAS /KRAS” value was “A (a compound having 10 or more and less than 20 is denoted as A)”. The “HRAS /KRAS” value at HRAS wild-type protein was “A (a compound having 10 or more and less than 20 is denoted as A)”.

For `C#CC[C@H]1C(=O)N[C@@H]([C@@H](C)CC)C(=O)N(C)CC(=O)N(C)[C@H]2C/C=C\CCN(C2=O)[C@@H](Cc2ccc(C(F)(F)F)cc2)C(=O)N(C)CC(=O)N[C@@H](CCc2cc(F)c(C(F)(F)F)c(F)c2)C(=O)N2CC3(CC3)C[C@H]2C(=O)NC2(CC(C)(C)C2)C(=O)N(C)[C@@H](C2CCCC2)C(=O)N(C)[C@H](C(=O)N(C)C)CC(=O)N1C` [PP2976], the pIC50 in experiment [1] is 8.06. In experiment [2], the “NRAS /KRAS” value is “A (a compound having 10 or more and less than 20 is denoted as A)”. The “HRAS /KRAS” value on HRAS wild-type protein is “B (a compound having 3 or more and less than 10 is denoted as B)”.

In turn, `CCC[C@H]1C(=O)N[C@@H]([C@@H](C)CC)C(=O)N(C)CC(=O)N(C)[C@H]2C/C=C\CCN(C2=O)[C@@H](Cc2ccc(C(F)(F)F)cc2)C(=O)N(C)CC(=O)N[C@@H](CCc2ccc(C(F)(F)F)c(Cl)c2)C(=O)N2C[C@H](OCC)C[C@H]2C(=O)NC2(CC(C)(C)C2)C(=O)N(C)[C@@H](CC(C)C)C(=O)N(C)[C@H](C(=O)N(C)C)CC(=O)N1C` [PP2977] gave a pIC50 in experiment [1] of 8.09. Besides, the “NRAS /KRAS” value in experiment [2] is “A (a compound having 10 or more and less than 20 is denoted as A)”. Besides, the “HRAS /KRAS” value on HRAS wild-type protein was “A (a compound having 10 or more and less than 20 is denoted as A)”.

Take `CCC[C@H]1C(=O)N[C@@H]([C@@H](C)CC)C(=O)N(C)CC(=O)N(C)[C@H]2C/C=C\CCN(C2=O)[C@@H](Cc2ccc(C(F)(F)F)cc2)C(=O)N(C)CC(=O)N[C@@H](CCc2ccc(C(F)(F)F)c(Cl)c2)C(=O)N2CC3(CC3)C[C@H]2C(=O)NC2(CC(C)(C)C2)C(=O)N(C)[C@@H](CC(C)(C)C)C(=O)N(C)[C@H](C(=O)N(C)C)CC(=O)N1C` [PP2979]: in experiment [1], the negative-log IC50 (pIC50) is 8.30. Besides, the “NRAS /KRAS” value in experiment [2] is “A (a compound having 10 or more and less than 20 is denoted as A)”. Besides, the “HRAS /KRAS” value at HRAS wild-type protein is “B (a compound having 3 or more and less than 10 is denoted as B)”.

Turning to `C#CC[C@H]1C(=O)N[C@@H]([C@@H](C)CC)C(=O)N(C)CC(=O)N(C)[C@H]2C/C=C\CCN(C2=O)[C@@H](Cc2ccc(C(F)(F)F)cc2)C(=O)N(C)CC(=O)N[C@@H](CCc2ccc(C(F)(F)F)c(Cl)c2)C(=O)N2CC3(CC3)C[C@H]2C(=O)NC2(CC(C)(C)C2)C(=O)N(C)[C@@H](C2CCCC2)C(=O)N(C)[C@H](C(=O)N(C)C)CC(=O)N1C` [PP2980], the negative logarithm of the IC50 (pIC50) in experiment [1] is 7.93. In experiment [2], the “NRAS /KRAS” value was “A (a compound having 10 or more and less than 20 is denoted as A)”. Also, the “HRAS /KRAS” value on HRAS wild-type protein was “B (a compound having 3 or more and less than 10 is denoted as B)”.

Regarding `CCC[C@H]1C(=O)N[C@@H](C2CCCC2)C(=O)N(C)CC(=O)N(C)[C@H]2C/C=C\CCN(C2=O)[C@@H](Cc2ccc(C(F)(F)F)cc2)C(=O)N(C)CC(=O)N[C@@H](CCc2ccc(C(F)(F)F)c(Cl)c2)C(=O)N2CC3(CC3)C[C@H]2C(=O)NC2(CC(C)(C)C2)C(=O)N(C)[C@@H](CC(C)(C)C)C(=O)N(C)[C@H](C(=O)N(C)C)CC(=O)N1C` [PP2981], the pIC50 in experiment [1] is 7.69. In addition, in experiment [2], the “NRAS /KRAS” value is “AA (a compound having 20 or more is denoted as AA)”. Besides, the “HRAS /KRAS” value on HRAS wild-type protein is “A (a compound having 10 or more and less than 20 is denoted as A)”.

Compound `C#CC[C@H]1C(=O)N[C@@H]([C@@H](C)CC)C(=O)N(C)CC(=O)N(C)[C@H]2C/C=C\CCN(C2=O)[C@@H](Cc2ccc(C)cc2)C(=O)N(C)CC(=O)N[C@@H](CCc2ccc(C(F)(F)F)c(Cl)c2)C(=O)N2CC3(CC3)C[C@H]2C(=O)NC2(CC(C)(C)C2)C(=O)N(C)[C@@H](C2CCCC2)C(=O)N(C)[C@H](C(=O)N(C)C)CC(=O)N1C` [PP2982] had a pIC50 in experiment [1] of 7.92. For the same compound, the “NRAS /KRAS” value in experiment [2] is “A (a compound having 10 or more and less than 20 is denoted as A)”. Moreover, the “HRAS /KRAS” value on HRAS wild-type protein was “A (a compound having 10 or more and less than 20 is denoted as A)”.

In experiment [1], `CCC[C@H]1C(=O)N[C@@H]([C@@H](C)CC)C(=O)N(C)CC(=O)N(C)[C@H]2C/C=C\CCN(C2=O)[C@@H](Cc2ccc(C(F)(F)F)cc2)C(=O)N(C)CC(=O)N[C@@H](CCc2ccc(C(F)(F)F)c(Cl)c2)C(=O)N2CC3(CC3)C[C@H]2C(=O)NC2(CC(C)(C)C2)C(=O)N(C)[C@@H]([C@@H](C)CC)C(=O)N(C)[C@H](C(=O)N(C)C)CC(=O)N1C` [PP2983] had a negative logarithm of the IC50 (pIC50) of 7.73. Further, the “NRAS /KRAS” value in experiment [2] is “AA (a compound having 20 or more is denoted as AA)”. The “HRAS /KRAS” value on HRAS wild-type protein is “A (a compound having 10 or more and less than 20 is denoted as A)”.

In experiment [1], `CCC[C@H]1C(=O)N[C@@H](C2CCCC2)C(=O)N(C)CC(=O)N(C)[C@H]2C/C=C\CCN(C2=O)[C@@H](Cc2ccc(C(F)(F)F)cc2)C(=O)N(C)CC(=O)N[C@@H](CCc2ccc(C(F)(F)F)c(Cl)c2)C(=O)N2C[C@H](OCC)C[C@H]2C(=O)NC2(CC(C)(C)C2)C(=O)N(C)[C@@H](C2CCCC2)C(=O)N(C)[C@H](C(=O)N(C)C)CC(=O)N1C` [PP2984] gave a pIC50 of 8.02. Moreover, the “NRAS /KRAS” value in experiment [2] is “A (a compound having 10 or more and less than 20 is denoted as A)”. Also, at HRAS wild-type protein, the “HRAS /KRAS” value is “B (a compound having 3 or more and less than 10 is denoted as B)”.

In general, pIC50 refers to the IC50 on a negative log10 scale, so that one unit is a factor of ten.
